This passage reports IC50 results from patent EP4692090A1 (Shanghai Fosun Pharmaceutical (Group) Co., Ltd., priority 2023, dated 2024).

pIC50: −log10 of the molar value. Like-named read-outs stand apart in the source and are kept apart here. Where only a bound is given, the exact number is not on record here.

The target of assay [1] is T1, ATR kinase (Homo sapiens, UniProt Q13535).
T1 construct: purchased Eurofins 14-953
Nature of the assay: Inhibitory effect on ATR kinase activity (Caliper mobility shift, FAM-labeled RAD17 peptide substrate). Format: biochemical. The method, boiled down:
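Caliper mobility-shift assay with 1 nM ATR, FAM-labeled RAD17 peptide […] and 5 mM ATP in HEPES pH 7.5 with 10 mM MnCl2, run 3 h at 28 °C and stopped with EDTA. Compounds were tested in 10-point 3-fold dilutions from 1 µM. IC50 was fitted from % inhibition of substrate conversion versus blank control.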

In assay [2] the test system is LoVo cells. Put plainly: LoVo cell proliferation assay (CellTiter-Glo). Format: cell-based. To be noted: Homo sapiens, LoVo, 120 h, maximum concentration 10 µM, 9 concentrations; for pIC50: LoVo cells, 2,000 cells per well, 5 days incubation, CellTiter-Glo, read-out: LoVo IC50; for IC50: read-out: LoVo IC50 (nM), LoVo cells, 2,000 cells per well, 5 days incubation, CellTiter-Glo. The method, boiled down:
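LoVo cells, 2,000 per well, were treated after overnight attachment with 9-point 3-fold dilutions from 10 µM for 5 days at 37 °C. Viability was read by CellTiter-Glo luminescence. Inhibition % was taken relative to DMSO control, and IC50 came from the concentration–inhibition curve.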

Setting [3] is: 1 nM ATR kinase (Eurofins), 28°C for 3 hours, maximum concentration 1 µM, 10 concentrations, read-out: ATR kinase IC50.
Where [4] appears, read: read-out: ATR kinase IC50, 1 nM ATR kinase (Eurofins), 28°C for 3 hours, maximum concentration 1 µM, 10 concentrations.

T1 sequence (Q13535 whole entry): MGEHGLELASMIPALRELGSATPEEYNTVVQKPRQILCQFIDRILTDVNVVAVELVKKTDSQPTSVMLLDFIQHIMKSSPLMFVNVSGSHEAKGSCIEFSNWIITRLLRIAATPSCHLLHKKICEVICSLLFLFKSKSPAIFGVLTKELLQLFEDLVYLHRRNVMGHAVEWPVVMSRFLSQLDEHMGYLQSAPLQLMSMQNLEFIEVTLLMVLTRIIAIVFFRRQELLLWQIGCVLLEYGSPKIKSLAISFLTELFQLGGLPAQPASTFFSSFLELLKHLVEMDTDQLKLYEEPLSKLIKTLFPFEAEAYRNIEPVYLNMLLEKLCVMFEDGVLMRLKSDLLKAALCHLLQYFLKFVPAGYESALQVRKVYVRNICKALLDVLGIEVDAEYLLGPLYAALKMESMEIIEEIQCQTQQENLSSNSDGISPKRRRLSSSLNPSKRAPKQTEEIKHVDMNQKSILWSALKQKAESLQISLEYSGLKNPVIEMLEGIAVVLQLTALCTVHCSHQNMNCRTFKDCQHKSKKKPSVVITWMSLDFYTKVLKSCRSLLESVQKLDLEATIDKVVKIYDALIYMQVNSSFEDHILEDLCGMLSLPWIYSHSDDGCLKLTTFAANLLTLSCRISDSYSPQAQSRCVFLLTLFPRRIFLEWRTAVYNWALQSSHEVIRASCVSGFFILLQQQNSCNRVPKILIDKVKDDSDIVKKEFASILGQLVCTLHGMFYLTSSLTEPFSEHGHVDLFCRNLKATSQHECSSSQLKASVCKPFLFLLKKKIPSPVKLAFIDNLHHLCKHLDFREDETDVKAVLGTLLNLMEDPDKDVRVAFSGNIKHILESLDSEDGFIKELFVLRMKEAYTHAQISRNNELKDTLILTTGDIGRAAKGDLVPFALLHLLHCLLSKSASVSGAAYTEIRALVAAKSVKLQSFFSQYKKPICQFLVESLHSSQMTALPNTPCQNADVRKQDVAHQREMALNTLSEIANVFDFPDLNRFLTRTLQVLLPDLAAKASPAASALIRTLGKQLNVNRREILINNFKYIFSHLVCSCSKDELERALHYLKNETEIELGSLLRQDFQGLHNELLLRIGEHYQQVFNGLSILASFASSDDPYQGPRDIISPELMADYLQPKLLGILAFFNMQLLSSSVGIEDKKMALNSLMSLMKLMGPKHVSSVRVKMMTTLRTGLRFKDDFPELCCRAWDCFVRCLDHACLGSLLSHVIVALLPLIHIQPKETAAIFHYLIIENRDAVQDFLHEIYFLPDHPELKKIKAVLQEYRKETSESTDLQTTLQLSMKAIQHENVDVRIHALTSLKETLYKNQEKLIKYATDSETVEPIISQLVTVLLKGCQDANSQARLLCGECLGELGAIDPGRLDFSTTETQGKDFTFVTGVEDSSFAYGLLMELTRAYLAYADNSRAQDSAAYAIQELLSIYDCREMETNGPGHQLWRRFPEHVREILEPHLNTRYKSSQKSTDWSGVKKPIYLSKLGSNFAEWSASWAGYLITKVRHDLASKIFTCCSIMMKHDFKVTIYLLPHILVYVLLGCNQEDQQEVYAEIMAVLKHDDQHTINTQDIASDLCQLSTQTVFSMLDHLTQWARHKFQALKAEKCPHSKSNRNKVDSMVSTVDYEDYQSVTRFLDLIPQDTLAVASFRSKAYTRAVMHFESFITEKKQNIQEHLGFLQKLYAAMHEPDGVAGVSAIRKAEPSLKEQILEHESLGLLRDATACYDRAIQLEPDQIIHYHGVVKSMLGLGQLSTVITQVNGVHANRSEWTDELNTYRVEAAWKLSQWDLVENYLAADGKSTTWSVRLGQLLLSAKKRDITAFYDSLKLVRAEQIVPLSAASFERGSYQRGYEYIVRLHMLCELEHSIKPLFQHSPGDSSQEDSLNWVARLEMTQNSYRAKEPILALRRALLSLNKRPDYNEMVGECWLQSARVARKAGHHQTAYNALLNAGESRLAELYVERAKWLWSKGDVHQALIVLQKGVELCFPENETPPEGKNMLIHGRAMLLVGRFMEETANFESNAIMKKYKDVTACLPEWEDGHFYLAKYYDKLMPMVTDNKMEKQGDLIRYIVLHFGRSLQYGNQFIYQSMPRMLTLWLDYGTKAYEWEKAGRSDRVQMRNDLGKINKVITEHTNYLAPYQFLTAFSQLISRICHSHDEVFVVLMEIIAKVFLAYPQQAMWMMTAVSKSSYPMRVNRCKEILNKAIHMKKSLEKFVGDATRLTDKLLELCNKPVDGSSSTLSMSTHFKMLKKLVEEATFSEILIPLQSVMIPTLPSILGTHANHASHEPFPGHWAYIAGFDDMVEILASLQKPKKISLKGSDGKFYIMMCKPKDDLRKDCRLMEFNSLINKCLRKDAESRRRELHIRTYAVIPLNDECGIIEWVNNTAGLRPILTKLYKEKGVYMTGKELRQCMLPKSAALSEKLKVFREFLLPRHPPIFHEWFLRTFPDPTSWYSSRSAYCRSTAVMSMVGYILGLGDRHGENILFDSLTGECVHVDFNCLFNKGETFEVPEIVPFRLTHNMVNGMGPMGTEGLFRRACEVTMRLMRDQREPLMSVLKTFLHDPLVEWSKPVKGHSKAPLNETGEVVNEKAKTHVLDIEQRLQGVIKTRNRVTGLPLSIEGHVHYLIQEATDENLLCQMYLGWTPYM
T1 sequence (Q8WXE1 whole entry partner): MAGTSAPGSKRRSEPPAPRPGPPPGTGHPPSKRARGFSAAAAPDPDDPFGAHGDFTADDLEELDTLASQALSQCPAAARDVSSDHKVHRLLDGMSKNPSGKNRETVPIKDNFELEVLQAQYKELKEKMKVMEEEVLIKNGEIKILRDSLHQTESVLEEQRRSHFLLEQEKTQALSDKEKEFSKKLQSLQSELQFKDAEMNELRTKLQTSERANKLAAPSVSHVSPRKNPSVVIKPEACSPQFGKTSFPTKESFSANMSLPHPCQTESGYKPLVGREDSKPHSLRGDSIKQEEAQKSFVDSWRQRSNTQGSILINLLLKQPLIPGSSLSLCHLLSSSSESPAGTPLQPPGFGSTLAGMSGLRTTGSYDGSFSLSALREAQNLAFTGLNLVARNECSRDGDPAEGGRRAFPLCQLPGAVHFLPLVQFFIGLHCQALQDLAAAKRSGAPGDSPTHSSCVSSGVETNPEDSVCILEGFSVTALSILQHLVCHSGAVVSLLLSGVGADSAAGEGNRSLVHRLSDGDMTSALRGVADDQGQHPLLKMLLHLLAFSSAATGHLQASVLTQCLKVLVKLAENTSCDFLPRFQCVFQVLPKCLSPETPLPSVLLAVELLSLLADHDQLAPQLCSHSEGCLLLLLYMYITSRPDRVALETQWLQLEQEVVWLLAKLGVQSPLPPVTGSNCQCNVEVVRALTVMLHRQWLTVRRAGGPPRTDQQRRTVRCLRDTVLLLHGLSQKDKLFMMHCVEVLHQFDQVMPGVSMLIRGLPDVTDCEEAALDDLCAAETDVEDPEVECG

For `CC(C)CN1C(=O)CCn2nc(-c3cc[nH]n3)c3nc(N4CCOC[C@H]4C)cc1c32` [Compound 84, (R)-6-isobutyl-4-(3-methylmorpholino)-2-(1H-pyrazol-3-yl)-8,9-dihydro-1,3,6,9a-tetraazabenzo[cd]azulene-7(6H)-one], the results for the pIC50 in assay [1] (setting [3]) and in assay [2] were over 8.00 and over 7.00, respectively.

With `C[C@@H]1COCCN1c1cc2c3c(n1)c(-c1cc[nH]n1)nn3CCC(=O)N2CCC(F)(F)F` [Compound 85, (R)-4-(3-methylmorpholino)-2-(1H-pyrazol-3-yl)-6-(3,3,3-trifluoropropyl)-8,9-dihydro-1,3,6,9a-tetraazabenzo[cd]azulene-7(6H)-one], the pIC50 in assay [1] (setting [3]) was 7.00 to 8.00; in assay [2] it was over 7.00.

As for `C[C@@H]1COCCN1c1cc2c3c(n1)c(-c1cc[nH]n1)nn3CCC(=O)N2C` [Compound 86, (R)-6-methyl-4-(3-methylmorpholino)-2-(1H-pyrazol-3-yl)-8,9-dihydro-1,3,6,9a-tetraazabenzo[cd]azulene-7(6H)-one], the pIC50 in assay [1] (setting [3]) and in assay [2] was 6.00 to 7.00 in each case.

What is called IC50 is the midpoint of a concentration-inhibition curve. With `C[C@@H]1COCCN1c1cc2c3c(n1)c(-c1cc[nH]n1)nn3CCC(=O)N2CC1(C)CC1` [Compound 87, (R)-6-((1-methylcyclopropyl)methyl)-4-(3-methylmorpholinyl)-2-(1H-pyrazol-3-yl)-8,9-dihydro-1,3,6,9a-tetraazabenzo[cd]azulene-7(6H)-one], the pIC50 in assay [1] (setting [4]) was 7.00 to 8.00. Moreover, the concentration for half-maximal inhibition (IC50) in assay [2] is under 100 nM.

For the compound `C[C@@H]1COCCN1c1cc2c3c(n1)c(-c1cc[nH]n1)nn3CCC(=O)N2C1(C)CC1` [Compound 88, (R)-6-(1-methylcyclopropyl)-4-(3-methylmorpholinyl)-2-(1H-pyrazol-3-yl)-8,9-dihydro-1,3,6,9a-tetraazabenzo[cd]azulene-7(6H)-one], in assay [1] (setting [4]), the pIC50 is over 8.00. Further, in assay [2], the IC50 was under 100 nM.

Consider `C[C@@H]1COCCN1c1cc2c3c(n1)c(-c1cc[nH]n1)nn3CCC(=O)N2C1CC1(F)F` (stereo partly drawn) [Compound 89, 6-(2,2-difluorocyclopropyl)-4-((R)-3-methylmorpholinyl)-2-(1H-pyrazol-3-yl)-8,9-dihydro-1,3,6,9a-tetraazabenzo[cd]azulene-7(6H)-one], for which, in assay [1] (setting [4]), the pIC50 was over 8.00. Also, the IC50 in assay [2] fell in the range of 100 to 1000 nM.

Consider `C[C@@H]1COCCN1c1cc2c3c(n1)c(-c1cc[nH]n1)nn3CCC(=O)N2C1CCOC1` (stereo partly drawn) [Compound 90, 4-((R)-3-methylmorpholino)-2-(1H-pyrazol-3-yl)-6-(tetrahydrofuran-3-yl)-8,9-dihydro-1,3,6,9a-tetraazabenzo[cd]azulene-7(6H)-one], for which the pIC50 was 7.00 to 8.00 in assay [1] (setting [3]) and 6.00 to 7.00 in assay [2].

`C[C@@H]1COCCN1c1cc2c3c(n1)c(-c1cc[nH]n1)nn3CCC(=O)N2C1CCOCC1` [Compound 91, (R)-4-(3-methylmorpholino)-2-(1H-pyrazol-3-yl)-6-(tetrahydro-2H-pyran-4-yl)-8,9-dihydro-1,3,6,9a-tetraazabenzo[cd]azulene-7(6H)-one]: the pIC50 in assay [1] (setting [3]) is 7.00 to 8.00; in assay [2] it was 6.00 to 7.00.

For `C[C@@H]1COCCN1c1cc2c3c(n1)c(-c1cc[nH]n1)nn3CCC(=O)N2C1CC2(CCC2)C1` [Compound 92, (R)-4-(3-methylmorpholino)-2-(1H-pyrazol-3-yl)-6-(spiro [3.3]hept-2-yl)-8,9-dihydro-1,3,6,9a-tetraazabenzo[cd]azulene-7(6H)-one], the results for the pIC50 in assay [1] (setting [3]) and in assay [2] were 7.00 to 8.00 and 6.00 to 7.00, respectively.

For `C[C@@H]1COCCN1c1cc2c3c(n1)c(-c1cc[nH]n1)nn3CCC(=O)N2` [Compound 93, (R)-4-(3-methylmorpholino)-2-(1H-pyrazol-3-yl)-8,9-dihydro-1,3,6,9a-tetraazabenzo[cd]azulene-7(6H)-one], the pIC50 in assay [1] (setting [3]) is 7.00 to 8.00; in assay [2], 6.00 to 7.00.

On to `C[C@@H]1COCCN1c1cc2c3c(n1)c(-c1cc[nH]n1)nn3CCC(=O)N2CC(C)(C)O` [Compound 95, (R)-6-(2-hydroxy-2-methylpropyl)-4-(3-methylmorpholinyl)-2-(1H-pyrazol-3-yl)-8,9-dihydro-1,3,6,9a-tetraazabenzo[cd]azulene-7(6H)-one], for which the pIC50 in assay [1] (setting [4]) was 7.00 to 8.00. Further, in assay [2], the IC50 was 100 to 1000 nM.

As to `C[C@@H]1COCCN1c1cc2c3c(n1)c(-c1cc[nH]n1)nn3CCC(=O)N2C1CC1C(F)(F)F` (stereo partly drawn) [Compound 96, 4-((R)-3-methylmorpholinyl)-2-(1H-pyrazol-3-yl)-6-(2-(trifluoromethyl)cyclopropyl)-8,9-dihydro-1,3,6,9a-tetraazabenzo[cd]azulene-7(6H)-one], in assay [1] (setting [4]), the pIC50 is 7.00 to 8.00. Further, the IC50 in assay [2] fell in the range of 100 to 1000 nM.

Turning to `C[C@@H]1COCCN1c1cc2c3c(n1)c(-c1cc[nH]n1)nn3CCC(=O)N2C1CC2(CC(O)C2)C1` (stereo partly drawn) [Compound 97, (R)-6-(6-hydroxyspiro[3.3]hept-2-yl)-4-(3-methylmorpholinyl)-2-(1H-pyrazol-3-yl)-8,9-dihydro-1,3,6,9a-tetraazabenzo[cd]azulene-7(6H)-one], the pIC50 in assay [1] (setting [4]) is over 8.00. For the same compound, the IC50 in assay [2] was in the range of 100 to 1000 nM.

As for `CCC(C)N1C(=O)CCn2nc(-c3cc[nH]n3)c3nc(N4CCOC[C@H]4C)cc1c32` (stereo partly drawn) [Compound 98, 6-(sec-butyl)-4-((R)-3-methylmorpholinyl)-2-(1H-pyrazol-3-yl)-8,9-dihydro-1,3,6,9a-tetraazabenzo[cd]azulene-7(6H)-one], the pIC50 in assay [1] (setting [4]) is over 8.00. In addition, the IC50 in assay [2] was under 100 nM.

For the compound `C[C@@H]1COCCN1c1cc2c3c(n1)c(-c1cc[nH]n1)nn3CCC(=O)N2Cc1cnn(C)c1` [Compound 99, (R)-6-((1-methyl-1H-pyrazol-4-yl)methyl)-4-(3-methylmorpholinyl)-2-(1H-pyrazol-3-yl)-8,9-dihydro-1,3,6,9a-tetraazabenzo[cd]azulene-7(6H)-one], the pIC50 in assay [1] (setting [4]) was 7.00 to 8.00. Besides, the IC50 in assay [2] was in the range of 100 to 1000 nM.

As for `CC(C1CC1)N1C(=O)CCn2nc(-c3cc[nH]n3)c3nc(N4CCOC[C@H]4C)cc1c32` (stereo partly drawn) [Compound 100, 6-(1-cyclopropylethyl)-4-((R)-3-methylmorpholinyl)-2-(1H-pyrazol-3-yl)-8,9-dihydro-1,3,6,9a-tetraazabenzo[cd]azulene-7(6H)-one], the pIC50 in assay [1] (setting [4]) was 7.00 to 8.00. Moreover, in assay [2], the IC50 was 100 to 1000 nM.

With `C[C@@H]1COCCN1c1cc2c3c(n1)c(-c1cc[nH]n1)nn3CCC(=O)N2C1(C)COC1` [Compound 101, (R)-4-(3-methylmorpholinyl)-6-(3-methyloxetan-3-yl)-2-(1H-pyrazol-3-yl)-8,9-dihydro-1,3,6,9a-tetraazabenzo[cd]azulene-7(6H)-one], in assay [1] (setting [4]), the pIC50 was 7.00 to 8.00. For the same compound, in assay [2], the IC50 lay within 100 to 1000 nM.

On to `C[C@@H]1COCCN1c1cc2c3c(n1)c(-c1cc[nH]n1)nn3CCC(=O)N2C1(C(F)F)CC1` [Compound 102, (R)-6-(1-(difluoromethyl)cyclopropyl)-4-(3-methylmorpholinyl)-2-(1H-pyrazol-3-yl)-8,9-dihydro-1,3,6,9a-tetraazabenzo[cd]azulene-7(6H)-one], for which the pIC50 in assay [1] (setting [4]) was over 8.00. In addition, the IC50 in assay [2] is under 100 nM.

For the compound `C[C@@H]1COCCN1c1cc2c3c(n1)c(-c1cc[nH]n1)nn3CCC(=O)N2CC#CC(C)(C)O` [Compound 103, (R)-6-(4-hydroxy-4-methylpent-2-yn-1-yl)-4-(3-methylmorpholinyl)-2-(1H-pyrazol-3-yl)-8,9-dihydro-1,3,6,9a-tetraazabenzo[cd]azulene-7(6H)-one], in assay [1] (setting [4]), the pIC50 is 7.00 to 8.00. For the same compound, the IC50 in assay [2] lay within 100 to 1000 nM.

For `C[C@@H]1COCCN1c1cc2c3c(n1)c(-c1cc[nH]n1)nn3CCC(=O)N2C1(C#N)CC1` [Compound 105, (R)-1-(4-(3-methylmorpholinyl)-7-oxo-2-(1H-pyrazol-3-yl)-8,9-dihydro-1,3,6,9a-tetraazabenzo[cd]azulene-6(7H)-yl)cyclopropane-1-carbonitrile], the pIC50 in assay [1] (setting [4]) is over 8.00. In addition, in assay [2], the IC50 is under 100 nM.

Turning to `C=CC(C)N1C(=O)CCn2nc(-c3cc[nH]n3)c3nc(N4CCOC[C@H]4C)cc1c32` (stereo partly drawn) [Compound 106, 6-(but-3-en-2-yl)-4-((R)-3-methylmorpholinyl)-2-(1H-pyrazol-3-yl)-8,9-dihydro-1,3,6,9a-tetraazabenzo[cd]azulene-7(6H)-one], the pIC50 in assay [1] (setting [4]) is over 8.00. Further, in assay [2], the IC50 was under 100 nM.

As for `COCC12CC(N3C(=O)CCn4nc(-c5cc[nH]n5)c5nc(N6CCOC[C@H]6C)cc3c54)(C1)C2` [Compound 107, (R)-6-(3-(methoxymethyl)bicyclo[1.1.1]pentan-1-yl)-4-(3-methylmorpholinyl)-2-(1H-pyrazol-3-yl)-8,9-dihydro-1,3,6,9a-tetraazabenzo[cd]azulene-7(6H)-one], in assay [1] (setting [4]), the pIC50 was over 8.00. The IC50 in assay [2] was in the range of 100 to 1000 nM.

As to `C[C@@H]1COCCN1c1cc2c3c(n1)c(-c1cc[nH]n1)nn3CCC(=O)N2C1(C2CC2)CC1` [Compound 108, (R)-6-([1,1'-bis(cyclopropane)]-1-yl)-4-(3-methylmorpholinyl)-2-(1H-pyrazol-3-yl)-8,9-dihydro-1,3,6,9a-tetraazabenzo[cd]azulene-7(6H)-one], the 50% inhibitory concentration (IC50) was under 10 nM in assay [1] (ATR kinase IC50 (nM), 1 nM ATR kinase (Eurofins), 28°C for 3 hours, maximum concentration 1 µM, 10 concentrations) and 100 to 1000 nM in assay [2].
